“Also recorded” adds a separate entry of the source.
Columns and labels:
[1] = Stability and solubility of peptide solutions
[2] = tested on: TLR9 signaling; test: ODN 1668-induced cytokine mRNA expression in BMDM (quantitative real time PCR); type: cell-based, mouse; settings: BMDM; for inhibition of TLR9 signaling (ODN 1668-induced cytokine mRNA, overall): peptide 10, 20 or 40 μM, ODN 1668 1 μM
Protocol: The cDNA obtained was amplified with gene-specific primers for mouse HPRT, TNFα, IL-10, IL-12-p40, or IL-6 and Fast SYBR Green™ master mix (Applied Biosystemsm) as previously described.
Mouse BMDMs were incubated in the presence of a 10, 20 or 40 μM decoy peptide for 30 minutes prior to stimulation with ODN 1668 (1 μM). […] Data represent the means±SEM of at least three independent experiments. The statistical significance of changes in cytokine mRNA was determined by a one-way ANOVA test; *p<0.001. Peptides 9R3 and 9R34 have overlapping sequences (see Table 1).
To investigate inhibition of TLR9 signaling by 9R34 analogues, the following work was performed. Mouse BMDMs were incubated in the presence of a 10, 20 or 40 μM decoy peptide for 30 minutes prior to stimulation with ODN 1668 (1 μM). Cytokine mRNA expression was measured 1 hour after ODN 1668 challenge and normalized to the expression of HPRT. See also Table 1. Data represent means±SEM of at least three independent experiments.

[3] = target: T1, TLR9 TIR (Homo sapiens, UniProt Q9NR96); test: FLIM/FRET binding of Cy3-labeled peptides to Cer-fused TIR in HeLa cells
T1 construct: expressed in transfected cells; host or cells: HeLa
T1 sequence (Q9NR96 868-1013 limits assumed): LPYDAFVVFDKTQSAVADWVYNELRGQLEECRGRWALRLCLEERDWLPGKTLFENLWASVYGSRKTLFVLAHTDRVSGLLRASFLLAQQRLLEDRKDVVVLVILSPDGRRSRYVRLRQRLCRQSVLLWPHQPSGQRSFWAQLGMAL
Summary of the method: (§1)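 HeLa cells transiently expressing Cerulean-fused TIR domains were exposed to Cy3-labeled peptides at various concentrations for 1 h, then fixed. Donor lifetimes came from FLIM with single/bi-exponential fits, and FRET efficiency was calculated as E=1−τDA/τD from whole-image average lifetimes.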

[4] = target: T2, TIRAP TIR (Homo sapiens, UniProt P58753); test: as above
T2 construct: fused with TLR9 TIR or TIRAP TIR; expressed in transfected cells; host or cells: HeLa
Summary of the method: as §1

[5] = target: T3, MyD88 TIR (Homo sapiens, UniProt Q99836); test: as above
T3 construct: expressed in transfected cells; host or cells: HeLa
Summary of the method: as §1

[6] = tested on: TLR9 signaling; test: ODN 1668-induced cytokine secretion in BMDM supernatants (ELISA); type: cell-based, mouse; settings: 5 hour supernatants, ODN 1668 1 μM
Protocol: Mouse TNFα and IL-12-p40 concentrations were measured in supernatants using ELISA kits from Biolegend™, Inc.
BMDMs were incubated in the presence of a decoy peptide for 30 minutes prior to stimulation with ODN 1668 (1 μM). The statistical significance of changes in cytokine levels was determined by the one-way ANOVA test; *p<0.01.

[7] = peptide 10, 20 or 40 μM 30 min before ODN 1668 (1 μM), 1 hour, normalized to HPRT

T2 sequence (P58753 84-213 limits assumed): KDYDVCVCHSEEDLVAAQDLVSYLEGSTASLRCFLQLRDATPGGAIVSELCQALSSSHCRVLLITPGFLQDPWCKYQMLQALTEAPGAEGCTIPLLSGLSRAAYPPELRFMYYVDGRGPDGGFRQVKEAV
T3 sequence (Q99836 159-293 limits assumed): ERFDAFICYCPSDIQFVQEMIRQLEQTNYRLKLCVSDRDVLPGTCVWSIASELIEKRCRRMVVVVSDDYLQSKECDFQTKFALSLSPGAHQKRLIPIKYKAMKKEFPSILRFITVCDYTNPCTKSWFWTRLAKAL

Row | Sequence | concentration up to which stock solutions were stable [1] | inhibition of TLR9 signaling (ODN 1668-induced cytokine mRNA, overall) [2] | binding to TLR9 TIR (FLIM summary) [3] | binding to TIRAP TIR (FLIM summary) [4] | interaction with MyD88 TIR (FLIM summary) [5] | TNFα mRNA expression ([2]; peptide 10, 20 or 40 μM 30 min before ODN 1668 (1 μM), 1 hour after stimulation, normalized to HPRT) | IL-10 mRNA expression [2, 7] | IL-12-p40 mRNA expression [2, 7] | secretion of IL-12-p40 ([6]; peptide 20 μM) | production/secretion of TNFα ([6]; peptide 40 μM) | secretion of IL-12-p40 ([6]; peptide 40 μM)
1 | ALRLCLEERD [Peptide 9R34-ΔN] | up to 10 mM | as potent as the parent peptide; also recorded: inhibited TLR9 signaling more potently than 9R3 | bind | bind | did not interact | – | – | – | – | – | –
2 | RSFWAQLGMALTRD (Synthetic peptide 9R11) | – | inhibit TLR9 signaling | bind | bind | interacted with the MyD88 TIR, but with a lower affinity | significantly suppressed | significantly suppressed | significantly suppressed | also effective | decreased the production of TNFα | reduced secretion
